For eight molecules, TGI and GI50 results are on record in PubChem BioAssay (NCI).

As usually defined, the TGI is the concentration giving total growth inhibition. Read a low TGI as greater sensitivity of the cells. By GI50 is commonly meant the concentration at which growth is held to half of that of the control.

SMILES strings stand for the structures.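 Results reflect a 48-hour exposure of cells in 96-well plates to compound at five concentrations. Abbreviation: GI50, concentration required for 50% inhibition of growth. TGI marks complete inhibition of growth.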

Among the test systems are SW-620 colon; HS 578T breast; NCI-H23 lung; HCT-116 colon; TK-10 renal; SF-295 CNS; SK-MEL-28 melanoma; SNB-19 CNS; LOX IMVI melanoma; MCF7 breast.
Experiment in all cases: DTP human tumour cell line panel, 48 h

With `Cc1cc(O)c2c3c(ccc2c1)C(=O)c1c(O)cccc1C3=O`, the TGI in the assay on SW-620 colon, in the assay with HS 578T breast, in the assay on NCI-H23 lung, in the assay with HCT-116 colon, in the assay with TK-10 renal and in the assay with SF-295 CNS was greater than 100 µM each time. For the same molecule, the total growth inhibition concentration (TGI) in the assay on SK-MEL-28 melanoma, with SNB-19 CNS, in the assay on LOX IMVI melanoma and in the assay on MCF7 breast was greater than 100 µM in each case.

Turning to `Nc1nc(-c2ccc(Cl)cc2)nc2c1sc(=S)n2-c1ccccc1`, the GI50 with SW-620 colon is 6.45 µM; in the assay on HS 578T breast it was 3.31 µM; in the assay on NCI-H23 lung, 4.05 µM; in the assay with HCT-116 colon, 2.94 µM; in the assay on TK-10 renal, 2.22 µM; in the assay with SF-295 CNS, 2.72 µM. The GI50 with SK-MEL-28 melanoma was 5.22 µM; with SNB-19 CNS, 3.55 µM; in the assay on LOX IMVI melanoma, 2.07 µM; with MCF7 breast, 4.29 µM. Besides, the total growth inhibition concentration (TGI) is 82.9 µM in the assay on SW-620 colon; 9.39 µM in the assay on HS 578T breast; 18.2 µM in the assay with NCI-H23 lung; 10.9 µM in the assay with HCT-116 colon; 5.9 µM with TK-10 renal; 7.62 µM in the assay on SF-295 CNS. In addition, the total growth inhibition concentration (TGI) with SK-MEL-28 melanoma is greater than 100 µM; in the assay on SNB-19 CNS, 10.1 µM; in the assay on LOX IMVI melanoma, 4.91 µM; in the assay on MCF7 breast it was greater than 100 µM.

In the case of `CC(C)(C)c1cc(C(=O)O)c2c(c1)C(=O)OC2(c1ccccc1)c1ccccc1C(=O)O` (configuration not stated), the concentration for total growth inhibition (TGI) in the assay on SW-620 colon, in the assay with HS 578T breast, in the assay on NCI-H23 lung, in the assay on HCT-116 colon, in the assay with TK-10 renal and in the assay with SF-295 CNS was greater than 100 µM throughout. For the same molecule, the TGI with SK-MEL-28 melanoma, in the assay on SNB-19 CNS, in the assay with LOX IMVI melanoma and in the assay with MCF7 breast was greater than 100 µM throughout. Further, the GI50 in the assay with HS 578T breast and in the assay with MCF7 breast was greater than 100 µM throughout.

`N#Cc1cccc(Nc2ncc(-c3ccccc3)o2)c1`: the GI50 in the assay with SW-620 colon is 22.4 µM; in the assay on HS 578T breast, 8.52 µM; in the assay on NCI-H23 lung, greater than 22.8 µM; in the assay on HCT-116 colon, 9.02 µM; in the assay with TK-10 renal it was 16.5 µM; with SF-295 CNS, 9.99 µM. Also, the GI50 in the assay with SK-MEL-28 melanoma is greater than 20.4 µM; in the assay with SNB-19 CNS, 17.3 µM; with LOX IMVI melanoma, 9.47 µM; in the assay with MCF7 breast, 8.25 µM. Also, the TGI in the assay with SW-620 colon, in the assay on HS 578T breast, in the assay on NCI-H23 lung, in the assay with HCT-116 colon, in the assay on TK-10 renal and in the assay with SF-295 CNS was greater than 25 µM throughout. Moreover, the TGI in the assay with SK-MEL-28 melanoma, in the assay on SNB-19 CNS, in the assay on LOX IMVI melanoma and in the assay with MCF7 breast was greater than 25 µM each time.

`O=S(=O)(O)c1ccc2cc3nn(-c4ccc(/C=C/c5ccc(-n6nc7cc8ccc(S(=O)(=O)O)cc8cc7n6)cc5S(=O)(=O)O)c(S(=O)(=O)O)c4)nc3cc2c1`: the GI50 in the assay on SW-620 colon is 63.2 µM; with HS 578T breast, greater than 100 µM; in the assay on NCI-H23 lung it was greater than 100 µM; with HCT-116 colon, 23.6 µM; in the assay on TK-10 renal, 10.6 µM; with SF-295 CNS, greater than 100 µM. Further, the GI50 in the assay on SK-MEL-28 melanoma is greater than 100 µM; in the assay on SNB-19 CNS it was greater than 100 µM; in the assay with LOX IMVI melanoma it was 16.3 µM; in the assay on MCF7 breast it was greater than 100 µM. The total growth inhibition concentration (TGI) in the assay on SW-620 colon, in the assay with HS 578T breast, in the assay with NCI-H23 lung, in the assay on HCT-116 colon, in the assay with TK-10 renal and with SF-295 CNS was greater than 100 µM in each case. In addition, the concentration for total growth inhibition (TGI) in the assay on SK-MEL-28 melanoma, in the assay on SNB-19 CNS, in the assay with LOX IMVI melanoma and in the assay on MCF7 breast was greater than 100 µM each time.

Take `Clc1nc(Cl)c2ncn(CCOCCn3cnc4c(Cl)nc(Cl)nc43)c2n1`: the GI50 was 0.212 µM in the assay on SW-620 colon; 0.289 µM in the assay on HS 578T breast; 0.204 µM in the assay with NCI-H23 lung; 0.182 µM with HCT-116 colon; 0.772 µM with TK-10 renal; 1.33 µM in the assay on SF-295 CNS. In addition, the 50% growth inhibitory concentration (GI50) with SK-MEL-28 melanoma was 0.199 µM; with SNB-19 CNS it was 0.448 µM; with LOX IMVI melanoma it was 0.185 µM; with MCF7 breast it was 0.192 µM. For the same molecule, the concentration for total growth inhibition (TGI) was found to be 0.44 µM in the assay on SW-620 colon; 0.693 µM with HS 578T breast; 0.401 µM with NCI-H23 lung; 0.346 µM with HCT-116 colon; 1.71 µM in the assay with TK-10 renal; 2.83 µM in the assay with SF-295 CNS. Moreover, the TGI in the assay on SK-MEL-28 melanoma amounted to 0.362 µM; with SNB-19 CNS it was 0.968 µM; with LOX IMVI melanoma it was 0.35 µM; in the assay on MCF7 breast it was 0.455 µM.

On to `COCCOCCOCCOCCOC(=O)OC[n+]1ccc(NC(=NCCCCCCOc2ccc(Cl)cc2)NC#N)cc1`, for which the GI50 with SW-620 colon is less than 0.01 µM; in the assay on HS 578T breast it was 1.11 µM; in the assay with NCI-H23 lung, 4.23 µM; in the assay with HCT-116 colon, less than 0.01 µM; in the assay with TK-10 renal, 13.2 µM; in the assay with SF-295 CNS, less than 0.0418 µM. The GI50 in the assay with SK-MEL-28 melanoma was 11.1 µM; in the assay on SNB-19 CNS it was 0.199 µM; with LOX IMVI melanoma, 2.57 µM; with MCF7 breast, 0.873 µM. For the same molecule, the TGI was 16.3 µM in the assay on SW-620 colon; 43.6 µM in the assay on HS 578T breast; 23.1 µM in the assay with NCI-H23 lung; 11.8 µM in the assay on HCT-116 colon; 26.4 µM in the assay on TK-10 renal; 12.5 µM with SF-295 CNS. For the same molecule, the concentration for total growth inhibition (TGI) with SK-MEL-28 melanoma stood at 23.5 µM; in the assay with SNB-19 CNS, 18.3 µM; in the assay on LOX IMVI melanoma, 20.6 µM; in the assay on MCF7 breast it was 17.4 µM.

Regarding `[Cl][Cu][Cl]`, the GI50 in the assay with SW-620 colon was greater than 10 µM; in the assay with HS 578T breast it was greater than 10 µM; with NCI-H23 lung, greater than 10 µM; in the assay with HCT-116 colon, greater than 10 µM; with TK-10 renal it was greater than 10 µM; in the assay on SF-295 CNS, 3.6 µM. Moreover, the GI50 with SK-MEL-28 melanoma, in the assay on SNB-19 CNS, in the assay on LOX IMVI melanoma and in the assay on MCF7 breast was greater than 10 µM throughout. The concentration for total growth inhibition (TGI) in the assay on SW-620 colon, in the assay with HS 578T breast, in the assay on NCI-H23 lung, in the assay on HCT-116 colon, in the assay with TK-10 renal and with SF-295 CNS was greater than 10 µM in each case. Besides, the total growth inhibition concentration (TGI) in the assay with SK-MEL-28 melanoma, in the assay on SNB-19 CNS, in the assay on LOX IMVI melanoma and with MCF7 breast was greater than 10 µM each time.
